Tests used:
[1] = Stability of DAC, 2dC, and 5mC (LC-MS/MS); format: physicochemical; settings: for Digest Buffers Stability (−70° C.) (35 Days) (%): digest buffer; for Stock Stability (27 Days) (%): Stock solution in water 1 mg/mL, −20° C. printed for DAC only
Method: (§1) Standards and quality control (QCs) samples were prepared by adding known concentrations of analytes into blank digest matrix (all solvents used during the DNA digest except for the enzymes). All digested DNA samples, standards and QCs were prepared for analysis by adding 20 μL internal standard (5AC-^15N4, 2dC-^13C^15N2 and 5mC-d3 in water) to 100 μL of sample and vortex-mix briefly. The internal standard in the range of 5 μL, 10 μL, or 15 μL to 20 μL, 25 μL, 30 μL, or 35 μL could be added to a sample. The sample could be in the range of 85 μL, 90 μL, or 95 μL to 100 μL, 105 μL, 110 μL, or 110 μL. The samples were injected onto a LC-MS system containing a Waters Acquity UPLC (Milford, Mass.) interfaced with an AB Sciex 5500 triple quadruple mass spectrometer (Foster City, Calif.). Chromatographic separation was achieved using Thermo Hypercarb porous graphite analytical column (100×2.1 mm, 5 μm, Waltham, Mass.) running isocratic with 10 mM ammonium acetate-acetonitrile-formic acid (70:30:0.1, v/v) with a flow rate of […]. The mass spectrometer was run in positive electrospray ionization mode with follow MRM transitions: DAC: 228.9→113.0, 2dC: 228.0→112.0, 5mC: 242.0→126.0, 5AC-^15N4 (internal standard): 249.0→117.0, 2dC-^13C^15N2 (internal standard) 230.8→115.0 and 5mC-d3 (internal standard) 245.8→129.0. The calibration range was 2-400 ng/mL for DAC, 5-1,000 ng/mL for 5mC, and 50-10,000 ng/mL for 2dC. All analytes were quantified using quadratic regression with 1/x^2 weighing.
A LC-MS/MS method was developed and validated to determine DAC, 2dC, and 5mC concentrations in DNA digest matrix (FIGS. 1-3). No major interferences were observed from blank matrix (FIGS. 1 and 2). Samples can be stored as the single dephosphorylated nucleotides for up to 35 days. The method has been applied in vitro to untreated (FIG. 4) and DAC treated cells (FIG. 5).

[2] = due to deamination to 5-aza-2′-deoxyuridine; cited from earlier work
whole bone marrow cells = assay: DAC and 5mC content in genomic DNA of bone marrow cells from mice treated with DAC; format: in vivo; settings: DAC 1, 2 or 5 mg/kg intraperitoneal, 10 doses (FIG. 7)
Method: (§2) Genomic DNA was suspended in 50 μL of HPLC grade water, and digested with 4 Units of Nuclease P1 (Sigma Aldrich) at 65° C. for 10 minutes in a digestion buffer containing 0.04 mM DFAM, 3.25 mM ammonium acetate pH 5.0, 0.5 mM zinc chloride in a final volume of 100 μL. 20 μL of 100 mM Trizma base, pH 8.5 was added and this reaction was treated with 4 Units of Alkaline Phosphatase at 37° C. for 1 hour. Following incubation, 20 μL of 300 mM ammonium acetate, pH 5.0 and 6 μL of 0.25 mM DFAM/50 mM ethylenediaminetetraacetic acid was added to stop digestion.
(§3) Standards and quality control (QCs) samples were prepared by adding known concentrations of analytes into blank digest matrix (all solvents used during the DNA digest except for the enzymes). All digested DNA samples, standards and QCs were prepared for analysis by adding 20 μL internal standard (5AC-^15N4, 2dC-^13C^15N2 and 5mC-d3 in water) to 100 μL of sample and vortex-mix briefly. The internal standard in the range of 5 μL, 10 μL, or 15 μL to 20 μL, 25 μL, 30 μL, or 35 μL could be added to a sample. […] All analytes were quantified using quadratic regression with 1/x^2 weighing. […]
(§4) DAC (1, 2 or 5 mg/kg) (Sigma-Aldrich) or vehicle was administered via daily intraperitoneal injection. […] DAC, 2dC, and 5mC were measured using our LC-MS/MS analytical approach.

[3] = tested on: DU145 human prostate cancer cells; assay: DAC incorporation into genomic DNA of DU145 cells (LC-MS/MS); format: cell-based
Method: as §2, §1
DU145 prostate cancer cells were cultured in RPMI-1640, supplemented with 5% fetal bovine serum (Invitrogen). DAC was dissolved in DMSO and added to the culture at varying concentrations. The same volume of DMSO was added as a control. Cells were allowed to grow for 48 hr. An independent experiment was performed in three replicates. Following cell harvest, genomic DNA isolation, digestion to single dephosphorylated nucleotides according to our described protocols, DAC and 2dC content were determined using our LC-MS/MS analytical approach.

colon tissue = assay: DAC and 5mC content in genomic DNA of colon cells from mice treated with DAC; format: in vivo; settings: DAC 1, 2 or 5 mg/kg intraperitoneal, 10 doses (FIG. 7)
Method: as §2, §3, §4

[4] = DU145 cells treated with 500 nM DAC (FIG. 5)

Row | Compound | Reinjection Stability (5 Days) (5° C.) (%) ([1]; High QC) | Digest Buffers Stability (−70° C.) (35 Days) (%) ([1]; High QC) | Reinjection Stability (5 Days) (5° C.) (%) ([1]; Low QC) | Digest Buffers Stability (−70° C.) (35 Days) (%) ([1]; Low QC) | Stock Stability (27 Days) (%) [1] | plasma half-life [2] | DAC incorporation into genomic DNA (DAC per thousand 2dC) (whole bone marrow cells) | concentration of 2dC in digested genomic DNA [3, 4] | concentration of 5mC in digested genomic DNA [3, 4] | concentration of DAC in digested genomic DNA [3, 4] | amount of DAC per thousand 2dC versus initial treatment dose ([3]; increasing doses of DAC, 48 hours, three replicates (FIG. 6)) | 5mC content (per thousand 2dC) relative to DAC incorporation (colon tissue) | DAC incorporation into genomic DNA (DAC per thousand 2dC) (colon tissue)
1 | Nc1ccn([C@H]2C[C@H](O)[C@@H](CO)O2)c(=O)n1 [2dC, 2′-deoxycytidine] | 106.0% | 99% | 108.0% | 107.2% | 98.7% | – | – | – | – | – | – | – | –
2 | Nc1ncn([C@H]2C[C@H](O)[C@@H](CO)O2)c(=O)n1 [DAC, 5-aza-2′-deoxycytidine] | 92.5% | 103.2% | 88.6% | 101.8% | 94.8% | 15 to 25 min | dose responsive increase in incorporation | 1250 ng/mL | 27.4 ng/mL | 2.8 ng/mL | strong linear correlation | inversely correlated with DAC incorporation | dose responsive increase in incorporation

Source: patent US11035850B2, “Quantitative determination of nucleoside analogue drugs in genomic DNA or RNA” (THE JOHNS HOPKINS UNIVERSITY, priority 2016, dated 2021)
